Laboratory results taken from patent US8349553B2, “Jasmonate based assays for identifying compounds that selectively inhibit mitochondrial bound hexokinases” (Ramot at Tel Aviv University Ltd., priority 2007, dated 2013).

Key:
CT26 cells = assay: Cellular ATP levels (CellTiter-Glo), CT26; type: cell-based, murine; settings: 60 minutes of exposure, indicated concentrations (FIG. 4A)
Description: The CellTiter-Glo™ Luminescent Cell Viability Assay (Promega, Madison, Wis., U.S.A.) was employed (Fingrut, 2005). Upon completion of a given experiment, plates were equilibrated to room temperature. CellTiter-Glo™ reagent containing luciferin and luciferase was added to each well and the plates were mixed on an orbital shaker for 2 minutes to induce cell lysis. In the presence of ATP, Mg^2+ and molecular oxygen, mono-oxidation of luciferin is catalyzed by luciferase, generating a luminescence signal. Cells were then incubated for 10 minutes at room temperature to stabilize the luminescence signal. Luminescence was recorded using Kodak digital science—Image station 440 CD. Luminescence is directly proportional to ATP concentration. ATP depletion (% of control) was calculated in the following way: {(luminescence of control cells−luminescence of drug-treated cells)/luminescence of control cells}×100. In order to test the correlation between cellular ATP levels and the release of hexokinase from mitochondrial fraction different cancer cells, namely Molt-4 cells, BCL-1 leukemic cells and B16 melanoma tumors were exposed to various methyl jasmonate concentrations. […] CT26 and Molt-4 cells were then seeded in 24 well plates. CT26 cells were allowed to adhere over night. Cells were exposed to methyl jasmonate (MJ; 3 mM) for 1 hour. Trypan blue exclusion test was performed and cells were counted.

[1] = system: mitochondrial fraction isolated from CT-26 tumors; assay: Cytochrome c release from mitochondrial fraction; type: biochemical, murine; settings: 3 mM
Description: Freshly isolated mitochondrial fraction, at a final concentration of 2 mg/ml in a volume of 100 μL, was incubated at 37° C. with the examined agent, e.g. methyl jasmonate, in a KCl-based respiratory buffer (150 mM KCl, 25 mM NaHCO3, 1 mM MgCl2, 3 mM KH2PO4, 20 mM Hepes, pH 7.4; Pastorino, 2002). Potassium succinate (5 mM) was added as respiratory substrate (Azoulay-Zohar, 2004). For the determination of cytochrome c release, mitochondrial fraction was pelleted at 20,000×g for 10 minutes at 4° C. Pellets were incubated for 40 minutes with lysis buffer (Tris HCl, pH 8, 20 mM, NaCl 137 mM, EDTA 2 mM, pH 8, 1% Triton-X-100, Protease Inhibitors cocktail: Sigma) on ice (Fingrut, 2005). Pellet lysates and supernatants were separated on 12% SDS-PAGE gels and electroblotted onto nitrocellulose membranes. Cytochrome c was detected by specific antibody (1:1000, BD PharMingen, San Diego, Calif.). Antigen-antibody complexes were stained with horseradish peroxidase-conjugated antibody (1:10,000, Santa Cruz Biotechnology, CA) and enhanced chemiluminescence (ECL) reagent (EZ-ECL, Biological Industries, Beit Haemek, Israel), and exposed to ECL film (Eastman Kodak, Rochester, N.Y., U.S.A.). Cytochrome c release from mitochondrial fraction isolated from CT-26 tumors occurred within the same time frame (15-60 minutes) required to detach hexokinase from mitochondria (FIG. 3). […]

[2] = system: HKI and HKII (mitochondrial fraction of Molt-4 cells); assay: Western blot of supernatants with anti-HKI and anti-HKII, Molt-4 mitochondrial fraction; type: biochemical, human; settings: Molt-4 mitochondrial fraction supernatant
Description: For analysis of hexokinase levels, the experiments were performed similarly to hexokinase detachment assay described above, and unbound hexokinase in the supernatant fraction was extracted as described in Fingrut (2005). Samples were separated by sodium dodecylsulfate-polyacrylamide gel (7%) electrophoresis followed by immunoblotting. The blots were probed with specific anti-HKI or anti-HKII antibodies (1:300, Santa-Cruz Biotechnology, CA, USA). Hexokinase-antibody complexes were stained with HRP-conjugated antibody (1:10,000, Santa-Cruz Biotechnology, CA, USA). Enhanced chemiluminescence (ECL) reagent (Biological Industries, Beit Haemek, Israel) was added, and the blots were exposed to ECL film (Eastman Kodak, Rochester, N.Y., USA). Hexokinase detachment from mitochondrial fraction is not limited to CT-26 colon carcinoma. Mitochondrial fractions isolated from different cancer cells, namely Molt-4 cells, BCL-1 leukemic cells and B16 melanoma tumors were incubated for 30 minutes at 37° C., and the activity of unbound hexokinase was measured and compared to the activity of spontaneously (control) detached hexokinase. […] The supernatant of the experiments were separated on SDS-PAGE and probed with anti-HKI and anti-HKII antibodies.

[3] = system: mitochondrial fraction of mouse brain; assay: Mitochondrial swelling assay, mouse brain; type: biochemical; settings: 1 mM
Description: Freshly isolated mitochondrial fraction was washed with extraction buffer to remove EDTA and resuspended in swelling buffer (Mannitol 220 mM, Sucrose 70 mM, Tris, pH 7.2, 150 mM, KH2PO4, pH 7.2, 0.2 mM; 0.2 mg in 100 μL) freshly supplemented with potassium succinate, pH 7.2, 5 mM. Every component was sodium-free. Optical density was monitored at the wave length of 540 nm for 2-5 minutes before the addition of the examined reagents, e.g. methyl jasmonate, and for additional 20 minutes afterwards.
In order to examine the consistency of the relationship between the ability of methyl jasmonate to detach bound hexokinase and mitochondrial damage, methyl jasmonate was tested in mouse brain in comparison to mouse liver. The comparison was performed due to known differences of mitochondrial hexokinase content between mouse brain vs. its liver. It is well established in the art that brain mitochondrial fraction is rich in bound hexokinase, while liver mitochondrial fraction is essentially devoid of it (Wilson, 1995). […] Mitochondrial fractions were incubated for either 10, 30 or 60 minutes at 37° C. The activity of unbound hexokinase was measured and compared to the activity of spontaneously (control) detached hexokinase. Consequently, the ability of methyl jasmonate to induce swelling in mitochondrial fraction isolated from mouse brain and liver was tested.

[4] = biological target: T1, hexokinase-I-Voltage dependent anion channel interactions (Rattus norvegicus, UniProt P05708); assay: Voltage-dependent anion channel recording in planar lipid bilayer after addition of hexokinase-I; type: biochemical; settings: 3 mM, HK-I 20 mU/ml, recorded after 10 minutes
T1 construct: from tissue; host or cells: HK-I from rat brain mitochondria; VDAC from rat liver mitochondria
Description: Currents were measured with respect to the trans side of the membrane (ground).

[5] = Solubility in SPR running buffer; type: physicochemical; settings: PBS X 1 with 0.005% Tween and 5% DMSO
Description: SPR using ProteOn-EP5 (Bio-Rad, Hercules, Calif., USA) system has been applied to study the direct interaction of methyl jasmonate with hexokinase. This system allowed measuring ligand-analyte interactions in a 6×6 format in real time. Purified rat brain HKI and rabbit immunoglobulin G (Rb IgG; ligands) were diluted in 10 mM Na acetate pH 4 and 4.5, respectively, and coupled to a GLM sensor surface activated with 37.5 mg/ml N-Ethyl-N′-(3′ dimethylaminopropyl) carbodiimide hydrochloride and 7.5 mg/ml N-hydroxysuccinimide. HKI and IgG were added to saturate the chip at 100 μg/ml. Remaining reactive groups on the chip were then inactivated with 1 M ethanolamine pH 8.5. […] Methyl jasmonate and jasmonic acid (analytes) were diluted in running buffer (PBS X 1 with 0.005% Tween and 5% DMSO) and injected onto the sensor chip at varying concentrations. All experiments were performed at flow rate of 50 μl/min, at 25° C.

T1 sequence (P05708 whole entry): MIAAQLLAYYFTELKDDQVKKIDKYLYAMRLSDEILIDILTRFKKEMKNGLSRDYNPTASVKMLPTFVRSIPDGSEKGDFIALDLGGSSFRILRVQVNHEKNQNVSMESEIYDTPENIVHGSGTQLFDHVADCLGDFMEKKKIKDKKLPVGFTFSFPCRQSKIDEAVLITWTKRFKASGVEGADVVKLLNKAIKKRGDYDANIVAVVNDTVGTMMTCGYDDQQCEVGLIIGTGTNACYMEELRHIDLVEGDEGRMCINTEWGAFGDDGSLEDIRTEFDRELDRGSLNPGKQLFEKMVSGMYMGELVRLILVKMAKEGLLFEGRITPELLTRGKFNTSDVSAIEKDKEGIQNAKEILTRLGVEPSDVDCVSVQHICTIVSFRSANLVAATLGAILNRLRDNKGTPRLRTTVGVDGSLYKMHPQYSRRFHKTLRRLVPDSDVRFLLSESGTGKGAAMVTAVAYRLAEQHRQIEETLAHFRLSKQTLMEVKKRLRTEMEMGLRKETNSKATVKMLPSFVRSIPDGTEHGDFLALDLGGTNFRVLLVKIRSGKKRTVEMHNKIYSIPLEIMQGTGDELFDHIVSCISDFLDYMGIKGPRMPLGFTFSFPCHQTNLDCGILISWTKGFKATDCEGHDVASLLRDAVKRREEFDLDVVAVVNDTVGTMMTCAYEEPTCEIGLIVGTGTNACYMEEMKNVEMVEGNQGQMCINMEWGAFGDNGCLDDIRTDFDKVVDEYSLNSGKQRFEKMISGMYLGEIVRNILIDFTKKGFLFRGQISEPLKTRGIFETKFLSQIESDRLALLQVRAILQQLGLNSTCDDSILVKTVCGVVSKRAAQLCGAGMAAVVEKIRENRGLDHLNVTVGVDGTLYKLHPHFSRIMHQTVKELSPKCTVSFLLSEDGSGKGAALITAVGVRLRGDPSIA

For `CC/C=C\CC1C(=O)CCC1CC(=O)OC` (centres unmarked) [methyl jasmonate], which “cellular ATP level” value (CT26 cells) is on record?
The value was “depletes cellular ATP”.

What about the “time frame of cytochrome c release” value ([1]; CT-26 tumor mitochondrial fraction) of the same compound?
Its value is 15 to 60 min.

And the “release of cytochrome c from isolated mitochondrial fraction” value ([1]; CT-26 tumor, 37° C.)?
The value was “caused time-dependent release of cytochrome c”.

What about the “detachment of hexokinase confirmed by immunoblot (anti-HKI, anti-HKII)” value [2] of the same compound?
Its value is “detachment of hexokinase from mitochondrial fraction of the various cancer cells was further confirmed”.

What about the “mitochondrial swelling (optical density at 540 nm)” value [3] of the same compound?
The value was “led to swelling in brain”.

And the “effect on HK-I-induced low-conducting state of voltage-dependent anion channel” value ([4]; −20 mV)?
Its value is “reversed by the addition of methyl jasmonate”.

What about the “effect on HK-I-closed voltage-dependent anion channel” value ([4]; −40 mV) of the same compound?
The value was “led to re-opening of HK-I-closed channels”.

What about the “solubility in the running buffer” value [5] of the same compound?
The value was “limited solubility”.
